Results on four substances are retold here after patent publication US20210380666A1, “SYNTHETIC HEME-CONTAINING MOLECULES AND THEIR USE” (priority 2017, published 2021).

Assay [1] can be described thus: CO binding of dithionite-reduced heme molecule by absorbance spectra. The settings on record: anaerobic, reduced with stoichiometric dithionite, CO saturated phosphate buffered saline added. An excerpt: A heme molecule bound to two peptide chains Ac-GCHGGR (SEQ ID NO: 2) in a “sandwich” (see FIG. 1), when prepared in anaerobic conditions, changes absorbance spectra (measured by Cary Spec device) with the introduction of stoichiometric amounts of dithionite.

The test system of assay [2] is 100% CO bound hemoglobin (HbCO). Kind of assay: CO scavenging from CO-bound hemoglobin, UV-visible spectra kinetics. The settings on record: 100% HbCO mixed with reduced heme-peptide; spectral changes during reaction. Format: biochemical.

Ends that are not written are not given here.

For the substance “Ac-GCHGGR: heme molecule bound to two peptide chains Ac-GCHGGR in a sandwich configuration (also: heme molecule bound to two peptide chains in a sandwich configuration)”, in assay [1], the “CO binding ability (change of absorbance spectra)” value was “indicating its CO binding ability”. In the case of “QHGCGGCHG (N-acetyl; heme bound via two thioether bonds)”, in assay [2], the “kobs for CO scavenging, k1” value came to 0.1828 s⁻¹ and the “kobs for CO scavenging, k2” value worked out at 0.00968 s⁻¹. On the same counts, the results for “RCHGGR: heme group bound to two non-contiguous peptides each of sequence RCHGGR (not fully specified (N-terminus); also: heme group bound to two non-contiguous peptide copies)” are 0.02576 s⁻¹ and 0.01241 s⁻¹.

For the substance “microperoxidase-11 [MP11, reference compound]”, the “kobs for CO scavenging, k1” value in assay [2] came out at 0.0215 s⁻¹.
